Assay results reported in patent US11639496B2, “Reducing fratricide of immune cells expressing NKG2D-based receptors” (CELYAD S.A, priority 2017, dated 2023).

Columns and labels:
Assay type in all cases: cell-based, human
[1] = test system: K562 or PANC-1 cells; experiment: Cytokine release assay: IFN-γ ELISA after co-culture of NKR-2 T cells with cancer cells; conditions: cells cultured with PI3K inhibitor (5 μM CAL101), compared with blocking NKG2D antibody
Protocol: Fresh NKR-2 T cells and/or control tCD19 cells were incubated with K562 or PANC-1 cells at a ratio of 1:1 in X-Vivo 15 containing 5% HS. Following an incubation of 24 h supernatants were harvested and IFN-γ measured by ELISA (R&D Systems, SIF50) according to manufacturer's protocol. As a positive control cells were activated with PMA (Sigma-Aldrich, P8139-5MG) and ionomycin (Sigma-Aldrich, 10634-1MG). To assess the background levels of activation the cells received no stimulus.
Antibody Inhibition Assay NKR-2 T cells were incubated with 1 μg/mL of NKG2D blocking antibody, isotype control or no antibody for 24 hours and subsequently NKR-2 T cells mediated secretion of IFN-γ measured. Similarly, NKR-2 cells were co-cultured with cancer cells in the presence of antibody and cytokine secretion measured.

[2] = test system: NKG2D (CD314); experiment: Flow cytometry of NKG2D (CD314) cell surface expression on NKR-2 T cells
Protocol: (§1) (A) MFI of NKG2D expression on NKR-2 T cells treated or not with increasing concentrations of LY294002. Data shown are mean±SD of N=3 independent donors. (B) Transduced T cells were cultured in complete X-vivo (100 IU/ml IL-2) supplemented or not with increasing concentrations of LY294002 for expansion. T cells were analyzed 96 h after seeding for fold expansion relative to the initial cell seeding density. Data shown are mean±SD of N=3 independent donors. (C) Viability of cells after cryopreservation. NKR-2 T cells were produced in presence of increasing concentration of LY294002. After production, cells were harvested, washed, and formulate for cryopreservation. After cryopreservation, cells were thawed using a water bath and resuspended in Plasmalyte/Human Serum Albumin (HSA) 5%. Cells viability was directly assessed after thawing (T0 h) or after 6 hours at 4° C. in Plasmalyte/HSA5% (T6 h) (N=[…]) (D) NKR-2 T cells were produced in presence of increasing concentration of LY294002. […] After 48 hours, cell viability was assessed using trypan blue staining (N=3) and normalized for the number of cells at cryopreservation (E) tCD19 T cells were co-cultured with NKR-2 T cells generated from the same donor in presence of increasing concentrations of blocking Ab (from 0 (−) to 10 μg/ml). […] Following a 24 h incubation, supernatants were harvested and IFN-γ measured (N=3). […]

[3] = test system: NKR-2 T cells; experiment: Fold expansion / cell yield of NKR-2 (NKG2D CAR) T cells during manufacturing culture; conditions: compared to cells without inhibition of NKG2D signaling
Protocol: as §1, with “After cryopreservation, cells were thawed using a water bath and resuspended in Plasmalyte/Human Serum Albumin (HSA) 5%.” left out
FIG. 9: NKR-2 T cells Ab blockade process adaptation restores CD4/CD8 ratio. […] PANC-1 viability was assessed every 2 hours by the IncuCyte S3 device. […]

CC[C@H](Nc1ncnc2[nH]cnc12)c1nc2cccc(F)c2c(=O)n1-c1ccccc1 [Cal-101, idelalisib]
IFN gamma secretion post co-culture with K562 cells [1]: produce more interferon

O=c1cc(N2CCOCC2)oc2c(-c3ccccc3)cccc12 [LY294002]
concentration at which NKG2D expression reaches the level of control tCD19 T cells [2]: 10 µM

Nc1cccc(-c2cc3c(Oc4cccc(O)c4)ncnc3[nH]2)c1 [TWS119]
expansion with downstream inhibitors of the PI3K pathway [3]: expansion is increased
